According to PMC9916857, “Triterpenoids from Kochiae Fructus: Glucose Uptake in 3T3-L1 Adipocytes and α-Glucosidase Inhibition, In Silico Molecular Docking” (International Journal of Molecular Sciences, 2023):
“Also recorded” adds a separate entry of the source. Marks after values point to notes of the source that are not given here.

Columns and labels:
[1] = biological target: α-glucosidase; experiment: In vitro α-glucosidase inhibition assay (pNPG substrate); assay type: biochemical; details: for IC50: mean ± SD, n = 3; for Inhibitory Rate (%): mean ± SD (n = 3)
Experimental: The α-glucosidase inhibition assay was carried out on the basis of the method reported by Zhang et al., with minor modifications. […] […] To initiate the reaction, pNPG (40 μL) was added to the reaction mixture and incubated at 37 °C for 30 min. The reaction was terminated by adding 20 μL of Na2CO3, after which the absorbance was determined at 405 nm by a microplate reader (SpectraMax190, Micro-g Biotech, Guangzhou, China).

[2] = test system: 3T3-L1 adipocytes; experiment: Insulin-induced glucose uptake assay in 3T3-L1 adipocytes; assay type: cell-based, murine
Experimental: (§1) The murine 3T3-L1 preadipocytes were supplied by the American Type Culture Collection (ATCC, Manassas, VA, USA). The cells were cultured in high-glucose DMEM supplemented with 10% (v/v) newborn calf serum (NBCS), 1% (v/v) Pen-Strep solution (P/S) at 37 °C in a humidified atmosphere of 5% CO2, and then starved until the cells reached confluence (day 0). Two days later (day 2), the cells were cultured in DMEM supplemented with 10% (v/v) fetal bovine serum (FBS), 1% (v/v) P/S, 0.5 mM 3-isobutyl-1-methylxanthine (IBMX), 1 μM dexamethasone (DEX), 1 μM rosiglitazone (ROSI) and 100 nM insulin. Three days after (day 5) the induction, the culture medium was replaced with DMEM containing 10% (v/v) FBS, 1% (v/v) P/S, and 100 nM insulin for one day (day 6). Then the cells were completely differentiated into mature adipocytes (Figure 11).
The mature adipocytes were inoculated in a 96-well plate at 5 × 10^4 cells per well for 24 h. The 3T3-L1 adipocytes were divided into model groups (blank control), insulin group (250 ng/mL, positive control), and sample group (20 μM). […] The absorbance value was detected by a microplate reader at 505 nm. The glucose uptake rate was calculated as follows:Glucose uptake rate (%) = [1 − A2/A1] × 100(1) where A1 is the absorbance of the mixed-glucose, DMEM-supplemented control, and A2 is the absorbance of the blank, insulin, or sample group.

[3] = test system: 3T3-L1 adipocytes; experiment: Cell viability (CellTiter 96 AQueous One Solution) after the glucose uptake experiment; assay type: cell-based, murine; details: compounds at 20 μM, compared to the control group
Experimental: as §1, with “Then the cells were completely differentiated into mature adipocytes (Figure 11).” left out
Cell viability was detected by using a CellTiter 96® AQueous One Solution Cell Proliferation Assay (Promega Corporation, Madison, WI, USA) according to the manufacturer’s instructions after the glucose uptake experiment. CellTiter 96® AQueous One Solution Cell Proliferation Assay reagent (20 µL/well) was added to the plate and incubated at 37 °C for 180 min before absorbance was measured at 490 nm, and the relative cell viability was calculated as follows:Relative cell viability (%) = A1/A2 × 100(2) where […].

[4] = biological target: α-glucosidase−pNPG complex; experiment: Kinetics of α-glucosidase inhibition, S/v versus [I] plot (Ki’); assay type: biochemical
Experimental: (§2) The kinetic analysis of compounds 3, 9, and 13 were measured using the reaction conditions in Section 3.6. Typically, three different concentrations of each compound around the IC50 values were chosen. Under each concentration, α-glucosidase activity was assayed by varying the concentration of pNPG as a substrate. […] Ki and Ki’ values were determined from 1/v versus [I] (Dixon plot) and S/v versus [I] plots, respectively.

[5] = biological target: α-glucosidase; experiment: Kinetics of α-glucosidase inhibition (Lineweaver–Burk and Dixon plots); assay type: biochemical; details: for Ki: Dixon plot, 1/v versus [I], read-out: Ki (inhibitor binding to α-glucosidase); for Inhibition type: Lineweaver–Burk and Dixon plots; for Change of Km and Vmax with increased concentration of inhibitor: Lineweaver–Burk plot
Experimental: as §2

[6] = percent inhibition at a concentration of 50 μM

| Compound | IC50 [1] [µM] | Inhibitory Rate (%) [1, 6] | other results |
| --- | --- | --- | --- |
| insulin | – | – | Effect on glucose uptake ([2]; insulin at 250 ng/mL (positive control), p < 0.001 versus control group): significantly promote |
| C[C@H]1O[C@H](O[C@H]2[C@H](O)[C@@H](O)[C@@H](O[C@H]3[C@H](O)[C@@H](O)C(O)O[C@@H]3CO)O[C@@H]2CO)[C@H](O)[C@@H](O)[C@@H]1N[C@H]1C=C(CO)[C@@H](O)[C@H](O)[C@H]1O (some centres unmarked) [Acarbose, acarbose, reference compound] | – | – | Inhibitory Rate (%) ([1]; percent inhibition at a concentration of 0.012 μM): 87.04 ± 0.29 ^a % |
| COC(=O)C1OC(OC2CCC3(C)C(CCC4(C)C3CC=C3C5CC(C)(C)CCC5(C(=O)OC5OC(CO)C(O)C(O)C5O)CCC34C)C2(C)C)C(O)C(OC2OCC(O)C(O)C2O)C1O (centres unmarked) [Compound 8, momordin IIc 6’-methyl ester] | > 50 | 57.02 ± 36.3 ^e % | – |
| CC1(C)CC[C@]2(C(=O)O[C@@H]3O[C@H](CO)[C@@H](O)[C@H](O)[C@H]3O)CC[C@]3(C)C(=CC[C@@H]4[C@@]5(C)CC[C@H](O[C@@H]6O[C@H](C(=O)O)[C@@H](O)[C@H](O[C@@H]7OC[C@@H](O)[C@H](O)[C@H]7O)[C@H]6O)C(C)(C)[C@@H]5CC[C@]43C)[C@@H]2C1 [Compound 7, momordin IIc] | > 50 | 52.71 ± 0.85 ^f % | – |
| CC1(C)CCC2(C(=O)OC3OC(CO)C(O)C(O)C3O)CCC3(C)C(=CCC4C5(C)CCC(OC6OC(C(=O)O)C(O)C(OC7OCC(O)C(O)C7O)C6OC6OC(CO)C(O)C(O)C6O)C(C)(C)C5CCC43C)C2C1 [Compound 9, 2’-O-β-D-glucopyranosyl momordin IIc] | 4.29 ± 0.52 | 74.41 ± 1.02 ^b % | Ki’ (inhibitor binding to the α-glucosidase−pNPG complex) [4]: 19.52 ± 0.26 μM; Ki [5]: 48.88 ± 0.07 µM; Inhibition type [5]: mixed-type; Change of Km and Vmax with increased concentration of inhibitor [5]: both the Km and Vmax values decreased |
| CC1(C)CC[C@]2(C(=O)O)CC[C@]3(C)C(=CC[C@@H]4[C@@]5(C)CC[C@H](O[C@@H]6O[C@H](C(=O)O)[C@@H](O)[C@H](O[C@@H]7OC[C@@H](O)[C@H](O)[C@H]7O)[C@H]6O)C(C)(C)[C@@H]5CC[C@]43C)[C@@H]2C1 [Compound 4, momordin Ic] | > 50 | 26.28 ± 1.01 ^i % | – |
| CC1(C)CCC2(C(=O)O)CCC3(C)C(=CCC4C5(C)CCC(OC6OC(C(=O)O)C(O)C(OC7OCC(O)C(O)C7O)C6O)C(C)(C(=O)O)C5CCC43C)C2C1 [Compound 1, 3(β)-3-O-β-D-xylopyranosly(1→3)-β-D-glucopyranosiduronic acid-12-en-23,28-dioic acid] | > 50 | 13.71 ± 0.54 ^j % | – |

More lines, main results first:

| IC50 [1] [µM] | Inhibitory Rate (%) [1, 6] | Compound | other results |
| --- | --- | --- | --- |
| > 50 | 17.49 ± 4.45 ^j % | CC1(C)C=C2C3CCC4[C@@]5(C)CC[C@H](O[C@@H]6O[C@H](CO)[C@@H](O)[C@H](O)[C@H]6O)C(C)(C)C5CC[C@@]4(C)[C@]3(C)CC[C@@]2(C(=O)O)CC1 (stereo partly drawn) [Compound 14, (3β)-3-(β-D-glucopyranosyloxy)olean-18-en-28-oic acid] | – |
| 17 ± 2.7 | 69.91 ± 0.59 ^c % | CC1(C)CC2C3=CCC4[C@@]5(C)CC[C@H](O)C(C)(C)C5CC[C@@]4(C)[C@]3(C)CC[C@@]2(C(=O)O)[C@H](O)C1 (some centres unmarked) [Compound 13] | Cell viability / cytotoxicity [3]: without inhibitory effects on cell viability; Effect on glucose uptake ([2]; compound at 20 μM, 24 h, p < 0.001 versus model group): potent effect; also recorded: strong effect; also recorded: significant promotion; Ki’ (inhibitor binding to the α-glucosidase−pNPG complex) [4]: 8.82 ± 0.06 μM; Ki [5]: 13.6 ± 0.42 µM; Inhibition type [5]: mixed-type; Change of Km and Vmax with increased concentration of inhibitor [5]: both the Km and Vmax values decreased |
| 23.5 ± 3.37 | 59.79 ± 1.04 ^d % | CC1(C)CCC2(C(=O)OC3OC(CO)C(O)C(O)C3O)CCC3(C)C(=CCC4C5(C)CC(O)C(O)C(C)(C)C5CCC43C)C2C1 [Compound 3, 2β,3β-dihydroxyolean-12-en-28-oic acid 28-O-β-D-glucopyranoside] | Ki’ (inhibitor binding to the α-glucosidase−pNPG complex) [4]: 47.89 ± 1.37 μM; Ki [5]: 56.9 ± 1.23 µM; Inhibition type [5]: mixed-type; Change of Km and Vmax with increased concentration of inhibitor [5]: Vmax values decreased and the Km values increased |
| > 50 | 29.62 ± 2.26 ^i % | COC(=O)C1OC(OC2CCC3(C)C(CCC4(C)C3CC=C3C5CC(C)(C)CCC5(C(=O)O)CCC34C)C2(C)C)C(O)C(OC2OCC(O)C(O)C2O)C1O (centres unmarked) [Compound 5, momordin Ic 6’-methyl ester] | – |
| > 50 | 53.98 ± 1.65 ^e % | CC1(C)CC[C@]2(C(=O)O)CC[C@]3(C)C(=CC[C@@H]4[C@@]5(C)CC[C@H](O)[C@@](C)(C(=O)O)[C@@H]5CC[C@]43C)[C@@H]2C1 [Compound 11, gypsogenic acid] | – |
| – | 41.48 ± 1.66 ^g % | CC1(C)CCC2(C(=O)OC3OC(CO)C(O)C(O)C3O)CCC3(C)C(=CCC4C5(C)CCC(O)C(C)(C)C5CCC43C)C2C1 [Compound 12, oleanolic acid 28-O-β-D-glucopyranosyl ester] | – |
| > 50 | 14.05 ± 4.90 ^j % | COC(=O)C1OC(OC2CCC3(C)C(CCC4(C)C3CC=C3C5CC(C)(C)CCC5(C(=O)O)CCC34C)C2(C)C(=O)O)C(O)C(OC2OCC(O)C(O)C2O)C1O [Compound 2, 3(β)-3-O-β-D-xylopyranosly(1→3)-β-D-glucopyranosiduronic acid 6-methyl ester-12-en-23,28-dioic acid] | – |
| > 50 | 35.00 ± 0.40 ^h % | CCOC(=O)C1OC(OC2CCC3(C)C(CCC4(C)C3CC=C3C5CC(C)(C)CCC5(C(=O)O)CCC34C)C2(C)C)C(O)C(OC2OCC(O)C(O)C2O)C1O (centres unmarked) [Compound 6, momordin Ic ethyl ester] | – |
